Consider three compounds from US12115226B2, “Linker containing arylnitro, antibody-drug conjugate containing linker and use of linker” (Academy of Military Medical Sciences, priority 2018, dated 2024).

Series [1] deals with NCI-N87 human gastric cancer cell xenograft. The series can be described thus: Efficacy in nude mice xenograft model of NCI-N87 human gastric cancer cell.
Description: The tested drug was dissolved in physiological saline and administered via tail vein injection.
The NCI-N87 gastric adenocarcinoma cells (purchased from ATCC) were cultured with DMEM medium containing inactivated 10% fetal bovine serum, 100 U/mL penicillin, 100 μg/mL streptomycin, and 2 mM glutamine in an incubator at 37° C. and 5% CO2. The initial concentration of the cultured cell was 1×10^6 cells/ml, and the cells were divided into bottles for passage every 3 to 4 days after the cells were full. The cancer cells in the logarithmic growth phase at 5×10^6 cells/0.1 mL were inoculated under skin of right lateral thorax of BALB/c nude mice (female, 6-8 weeks old, 18-22 g, purchased from Beijing Ankai Yibo Biotechnology Co., Ltd.). When the tumor grew to a volume of 150 mm^3, the modeling was successful. Then the administration was started, 6 mice in each dose group were administered at the specified dose once a week, the administration volume was 5 mL/kg, and the administration was performed 4 times in total. The tumor volume was measured twice a week by measurement of the long and short diameters of tumor with vernier caliper. The volume calculation formula was: volume=0.5×long diameter×short diameter^2. When the tumor volume was measured, the mice were weighed at the same time. The relationship between the change of mouse body weight and the time of administration was recorded. […]
Series [2] concerns antigen HER2-positive breast cancer cell line BT-474. The series can be described thus: Hypoxia-dependent cytotoxicity of ADC-1 (different oxygen environments). The settings on record: for IC50: Homo sapiens. How it is done:
The tested cell line was antigen HER2-positive breast cancer cell line BT-474. The cell culture process was as described in Example 12, in which the oxygen concentrations in the cell incubator were separately set to 0.1%, 1.0%, 5.0%, 10.0% and 20.0%.

Series [3] relates to antigen HER2-weakly positive breast cancer cell line MCF-7. The series can be described thus: In vitro cytotoxicity of ADC (CellTiter Glo), MCF-7. The series is classed as cell-based. The conditions noted are these: 0.1% O2, 168 hours, ADC DAR about 4. How it is done:
(§1) The vial containing the target cells was gently stirred in a 37° C. water bath to be thawed.
(§2) After the content was thawed, the vial was taken out from the water bath and decontaminated by immersion or spraying with 70% ethanol.
(§3) The cells were re-suspended in the culture medium, settled and distributed into a culture flask with an area of 75 cm^2.
(§4) The resulting culture was incubated in a Galaxy® CO2 incubator (48R, #C048312044) with 5% CO2 at 37° C., and the oxygen concentration in the incubator was 0.1%.
(§5) The cells were passaged three times a week at a ratio of 1:4 in a medium containing 10% […] (heat inactivated) and 1% penicillin-streptomycin solution.
(§6) For the passaged cells, the adherent cells were firstly rinsed with trypsin/EDTA solution (3 mL), then trypsin/EDTA (3 mL, T75 flask) was added, and spun to coat the cells evenly. The resulting culture was incubated at 37° C. until the cells were detached. It was observed by microscope to verify that the cells had been detached, then an equal volume of cell culture medium was added to inactivate trypsin, the detached cells were collected, and centrifuged at 200 g for 5 minutes, and then re-suspended in a fresh culture medium. […]
(§7) The cells were harvested and counted to determine the number of cells;

Series [4] concerns antigen HER2-negative breast cancer cell line MDA-MB-468. The experiment in a line: In vitro cytotoxicity of ADC (CellTiter Glo), MDA-MB-468. The settings on record: 0.1% O2, 168 hours, ADC DAR about 4. The series is classed as cell-based. How it is done:
as §1, §2, §3, §4, §5, §6, §7

Series [5] has as its system antigen HER2-positive breast cancer cell line BT-474. The series can be described thus: In vitro cytotoxicity of ADC (CellTiter Glo), BT-474. The series is classed as cell-based, human. The settings on record: 0.1% O2, 168 hours, ADC DAR about 4. Here is the method: as §1, §2, §3, §4, §5, §6, §7
Series [6] deals with antigen HER2-positive ovarian cancer cell line SK-OV-3. The experiment in a line: In vitro cytotoxicity of ADC (CellTiter Glo), SK-OV-3. The series is classed as cell-based. The conditions noted are these: 0.1% O2, 168 hours, ADC DAR about 4. Here is the method: as §1, §2, §3, §4, §5, §6, §7
Series [7] concerns antigen HER2-positive breast cancer cell line HCC1954. The series can be described thus: In vitro cytotoxicity of ADC (CellTiter Glo), HCC1954. It is filed as cell-based. The conditions noted are these: 0.1% O2, 168 hours, ADC DAR about 4. Here is the method:
as §1, §2, §3, §4, §5, §6, §7

In series [8] the test system is antigen HER2-positive gastric cancer cell line NCI-N87. The series can be described thus: In vitro cytotoxicity of ADC (CellTiter Glo), NCI-N87. It is filed as cell-based, human. The conditions noted are these: 0.1% O2, 168 hours, ADC DAR about 4. How it is done: as §1, §2, §3, §4, §5, §6, §7

The structures appear in SMILES notation. Square brackets hold non-standard residues; d marks the D form. Peptide text beside a SMILES is read from it. * marks the point of attachment. Dolaproine = CO[C@@H]([C@@H]1CCCN1)[C@@H](C)C(=O)O; Dil = CC[C@H](C)[C@H](NC)[C@@H](CC(=O)O)OC; X1 = C[C@@H](N*)[C@@H](O)c1ccccc1; NMeV = CN[C@H](C(=O)O)C(C)C

In the case of `CC(=O)O[C@@]12CO[C@@H]1C[C@H](O)[C@@]1(C)C(=O)[C@H](O)C3=C(C)[C@@H](OC(=O)[C@H](O)[C@@H](NC(=O)OC(C)(C)C)c4ccccc4)C[C@@](O)([C@@H](OC(=O)c4ccccc4)[C@H]21)C3(C)C` [Doxetaxel], in series [1], the “P(Vehicle VS Doxetaxel), body weight” value is listed as 0.0422. Besides, the “body weight of animals in the course of administration and treatment” value in series [1] (nude mice) was “significant weight loss”.

Regarding `CC[C@H](C)[C@@H]([C@@H](CC(=O)N1CCC[C@H]1[C@H](OC)[C@@H](C)C(=O)N[C@H](C)[C@@H](O)c1ccccc1)OC)N(C)C(=O)[C@@H](NC(=O)[C@H](C(C)C)N(C)C(=O)OCc1ccc(OCc2cnc([N+](=O)[O-])n2C)c(NC(=O)CNCCCCCCN2C(=O)C=CC2=O)c1)C(C)C` [L01-MMAE], the IC50 in series [2] (BT-474, read-out: IC50, cytotoxicity to BT-474 cells, O2 0.1%) amounted to 3.1 nM; in series [2] (BT-474, read-out: IC50, cytotoxicity to BT-474 cells, O2 1.0%), 3.11 nM; in series [2] (BT-474, read-out: IC50, cytotoxicity to BT-474 cells, O2 5.0%), 4.32 nM; in series [2] (BT-474, read-out: IC50, cytotoxicity to BT-474 cells, O2 10.0%) it was 8.94 nM; in series [2] (BT-474, read-out: IC50, cytotoxicity to BT-474 cells, O2 20.0%), 5.39 nM. Besides, the “increase of activity under hypoxic condition compared with normoxic condition” value in series [2] (oxygen 0.1% versus 20%, BT-474) was ~2 times.

Turning to `CC[C@H](C)[C@@H]([C@@H](CC(=O)N1CCC[C@H]1[C@H](OC)[C@@H](C)C(=O)N[C@H](C)[C@@H](O)c1ccccc1)OC)N(C)C(=O)[C@@H](NC(=O)[C@@H](NC)C(C)C)C(C)C` [MMAE, monomethyl auristatin E] (H-[NMeV]V[Dil][Dolaproine]-X1), the IC50 in series [3] worked out at 3.81 nM; in series [4], 0.13 nM; in series [5], 0.06 nM; in series [6], 0.54 nM; in series [7], 0.07 nM; in series [8], 0.23 nM.
